Assay results from patent US10851064B2, “ACSS2 inhibitors and methods of use thereof” (METABOMED LTD., priority 2017, dated 2020).

What follows are compounds tested against ACSS2 (Homo sapiens, UniProt Q9NR19) (assay: biochemical).
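Also: Cell-free human ACSS2 enzyme reaction with acetate, CoA and ATP, 90 min at 37 C, coupled to pyrophosphatase, phosphate release detected by Biomol Green absorbance at 620 nm.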

Chain of ACSS2 (Q9NR19 whole entry): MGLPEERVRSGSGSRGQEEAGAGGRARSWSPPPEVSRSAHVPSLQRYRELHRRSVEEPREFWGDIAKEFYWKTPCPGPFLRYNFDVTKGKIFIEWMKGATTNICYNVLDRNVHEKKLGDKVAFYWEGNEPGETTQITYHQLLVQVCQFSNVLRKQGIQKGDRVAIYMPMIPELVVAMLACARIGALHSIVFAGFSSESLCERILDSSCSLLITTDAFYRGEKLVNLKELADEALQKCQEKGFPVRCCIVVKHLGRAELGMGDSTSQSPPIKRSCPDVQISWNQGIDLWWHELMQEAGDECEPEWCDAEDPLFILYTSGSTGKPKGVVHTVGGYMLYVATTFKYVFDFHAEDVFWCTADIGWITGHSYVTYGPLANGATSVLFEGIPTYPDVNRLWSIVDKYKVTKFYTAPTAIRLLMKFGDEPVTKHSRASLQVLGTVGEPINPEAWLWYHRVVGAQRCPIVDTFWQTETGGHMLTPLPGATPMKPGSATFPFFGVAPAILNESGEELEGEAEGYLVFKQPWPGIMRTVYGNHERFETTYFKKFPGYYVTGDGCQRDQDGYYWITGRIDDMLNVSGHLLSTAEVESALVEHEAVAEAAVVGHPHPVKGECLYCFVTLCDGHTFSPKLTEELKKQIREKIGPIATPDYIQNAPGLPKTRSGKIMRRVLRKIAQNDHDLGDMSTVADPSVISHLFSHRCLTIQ

IC50 [nM]	SMILES
100 to 1000	CC(=O)c1cccc(NC(=O)C2C(=O)N(c3ccc(C(=O)O)cc3)N=C2C)c1 (centres unmarked) [compound 120, 4-(4-((3-acetylphenyl)carbamoyl)-3-methyl-5-oxo-4,5-dihydro-1H-pyrazol-1-yl)benzoic acid]
1000 to 100000	CC1=NN(c2ccccc2)C(=O)C1C(=O)Nc1cccc(CN(C)C)c1 (centres unmarked) [compound 131, N-(3-((dimethylamino)methyl)phenyl)-3-methyl-5-oxo-1-phenyl-4,5-dihydro-1H-pyrazole-4-carboxamide]
1000 to 100000	CC1=NN(c2ccccc2)C(=O)C1C(=O)Nc1cccc(O)c1 (centres unmarked) [compound 222, N-(3-hydroxyphenyl)-3-methyl-5-oxo-1-phenyl-4,5-dihydro-1H-pyrazole-4-carboxamide]
100 to 1000	CC1=NN(c2ccc(OC(F)F)cc2)C(=O)C1C(=O)N(C)c1cc(F)cc(Cl)c1 (centres unmarked) [compound 394]
0.01 to 6	CC1=NN(c2ccc(Cc3ccccc3)c(-c3cccnc3)c2)C(=O)C1C(=O)Nc1cccc(C(C)(F)F)c1 (centres unmarked) [compound 374]
0.01 to 6	COc1ccc(N2N=C(C)C(C(=O)Nc3cccc(C(C)(F)F)c3)C2=O)cc1-c1cccnc1 (centres unmarked) [compound 445]
0.01 to 6	CC1=NN(c2ccc3[nH]ccc3c2)C(=O)C1C(=O)Nc1cccc(C(C)(F)F)c1 (centres unmarked) [compound 419]
1000 to 100000	CC1=NN(c2ccccc2)C(=O)C1C(=O)Nc1cccc(-c2ccon2)c1 (centres unmarked) [compound 239]
0.01 to 6	COc1cc(N2N=C(C)C(C(=O)Nc3cccc(C(C)(F)F)c3)C2=O)ccc1OC(F)F (centres unmarked) [compound 454]
100 to 1000	CCc1cccc(NC(=O)C2C(=O)N(c3ccc(NC(C)=O)cc3)N=C2C)c1 (centres unmarked) [compound 144, 1-(4-acetamidophenyl)-N-(3-ethylphenyl)-3-methyl-5-oxo-4,5-dihydro-1H-pyrazole-4-carboxamide]
0.01 to 6	CC1=NN(c2ccc(OC3COC3)cc2)C(=O)C1C(=O)Nc1cccc(C(C)(F)F)c1 (centres unmarked) [compound 439]
> 100000	CC1=NN(c2ccccc2)C(=O)C1C(=O)NC(C)C (centres unmarked) [compound 200, N-isopropyl-3-methyl-5-oxo-1-phenyl-4,5-dihydro-1H-pyrazole-4-carboxamide]
100 to 1000	CCc1cccc(NC(=O)C2C=NN(c3ccccc3)C2=O)c1 (centres unmarked) [compound 133, N-(3-ethylphenyl)-5-oxo-1-phenyl-4,5-dihydro-1H-pyrazole-4-carboxamide]
> 100000	Cc1c(C(=O)Nc2ccccc2)c(=O)n(-c2ccccc2)n1C [compound 190, 1,5-dimethyl-3-oxo-N,2-diphenyl-2,3-dihydro-1H-pyrazole-4-carboxamide]
0.01 to 6	CC1=NN(c2cccc(C#CCNC(=O)COCCOCCOCC(=O)Nc3cccc4c3C(=O)N(C3CCC(=O)NC3=O)C4=O)c2)C(=O)C1C(=O)Nc1cccc(C(C)(F)F)c1 (centres unmarked) [compound 380]
0.01 to 6	CC1=NN(c2ccc(OC(F)F)c(-c3cccnc3)c2)C(=O)C1C(=O)Nc1cccc(C(C)(F)F)c1 (centres unmarked) [compound 455]
100 to 1000	CC1=NN(c2ccc(OC(F)F)cc2)C(=O)C1NC(=O)c1cccc(C(C)(F)F)c1 (centres unmarked) [compound 341]
0.01 to 6	CC1=NN(c2ccc(OC(F)F)c(-c3ccccn3)c2)C(=O)C1C(=O)Nc1cccc(C(C)(F)F)c1 (centres unmarked) [compound 438]
0.01 to 6	COc1ccc(N2N=C(C)C(C(=O)Nc3cccc(C(C)(F)F)c3)C2=O)cc1-c1cnccn1 (centres unmarked) [compound 433]
0.01 to 6	COc1ccc(N2N=C(C)C(C(=O)Nc3cccc(C(C)(F)F)c3)C2=O)c(F)c1 (centres unmarked) [compound 451]

IC50 [nM]	SMILES
6 to 100	CC1=NN(c2ccc(C3COC3)cc2)C(=O)C1C(=O)Nc1cccc(C(C)(F)F)c1 (centres unmarked) [compound 348]
0.01 to 6	CC1=NN(c2ccc(OC(F)F)c(-c3ccccc3)c2)C(=O)C1C(=O)Nc1cccc(C(C)(F)F)c1 (centres unmarked) [compound 453]
6 to 100	CC1=NN(c2ccccc2)C(=O)C1C(=O)Nc1cccc(CC(F)(F)F)c1 (centres unmarked) [compound 161, 3-methyl-5-oxo-1-phenyl-N-(3-(2,2,2-trifluoroethyl)phenyl)-4,5-dihydro-1H-pyrazole-4-carboxamide]
1000 to 100000	CCc1cccc(NC(=O)C2C(=O)N(c3ccccc3)N=C2C(F)(F)F)c1 (centres unmarked) [compound 130, N-(3-ethylphenyl)-5-oxo-1-phenyl-3-(trifluoromethyl)-4,5-dihydro-1H-pyrazole-4-carboxamide]
1000 to 100000	CCc1cccc(NC(=O)C2C(=O)N(c3ccccc3)N=C2C(C)C)c1 (centres unmarked) [compound 128, N-(3-ethylphenyl)-3-isopropyl-5-oxo-1-phenyl-4,5-dihydro-1H-pyrazole-4-carboxamide]
6 to 100	CC(=O)NS(=O)(=O)c1cc(N2N=C(C)C(C(=O)Nc3cccc(C(C)(F)F)c3)C2=O)ccc1OC(F)(F)F (centres unmarked) [compound 294]
6 to 100	CC1=NN(c2cc(Cc3ccccc3OCc3ccccc3)cc(-c3cccnc3)c2)C(=O)C1C(=O)Nc1cccc(C(C)(F)F)c1 (centres unmarked) [compound 365]
0.01 to 6	CC1=NN(c2cc(Cc3ccccc3Cl)cc(-c3cccnc3)c2)C(=O)C1C(=O)Nc1cccc(C(C)(F)F)c1 (centres unmarked) [compound 406]
> 100000	CC1=NN(c2ccccc2)C(=O)C1C(=O)Nc1nccs1 (centres unmarked) [compound 217, 3-methyl-5-oxo-1-phenyl-N-(thiazol-2-yl)-4,5-dihydro-1H-pyrazole-4-carboxamide]
6 to 100	CC(O)(c1ccccc1)c1cccc(NC(=O)C2C=NN(c3ccc(OC(F)F)cc3)C2=O)c1 (centres unmarked) [compound 416]
1000 to 100000	CC1=NN(c2ccccc2)C(=O)C1C(=O)Nc1cccc2ccccc12 (centres unmarked) [compound 185, 3-methyl-N-(naphthalen-1-yl)-5-oxo-1-phenyl-4,5-dihydro-1H-pyrazole-4-carboxamide]
6 to 100	CC1=NN(c2ccc3[nH]cnc3c2)C(=O)C1C(=O)Nc1cccc(C(C)(F)F)c1 (centres unmarked) [compound 405]
0.01 to 6	CC1=NN(c2ccc(C3CC3)cc2)C(=O)C1C(=O)Nc1cccc(C(C)(F)F)c1 (centres unmarked) [compound 457]
6 to 100	CC1=NN(c2ccc(C(F)(F)F)cc2)C(=O)C1C(=O)Nc1cccc(-c2ncc[nH]2)c1 (centres unmarked) [compound 148, N-(3-(1H-imidazol-2-yl)phenyl)-3-methyl-5-oxo-1-(4-(trifluoromethyl)phenyl)-4,5-dihydro-1H-pyrazole-4-carboxamide]
0.01 to 6	CC1=NN(c2ccc3ccn(C)c3c2)C(=O)C1C(=O)Nc1cccc(C(C)(F)F)c1 (centres unmarked) [compound 366]
0.01 to 6	COc1ccc(N2N=C(C)C(C(=O)Nc3cccc(C(C)(F)F)c3)C2=O)cc1-c1ccncc1 (centres unmarked) [compound 431]
100 to 1000	CC1=NN(c2ccccc2)C(=O)C1C(=O)Nc1cccc(C2CCCC2)c1 (centres unmarked) [compound 146, N-(3-cyclopentylphenyl)-3-methyl-5-oxo-1-phenyl-4,5-dihydro-1H-pyrazole-4-carboxamide]
6 to 100	Cc1nn(-c2ccc(OC(F)F)cc2)cc1C(=O)Nc1cccc(C(C)(F)F)c1 [compound 338]
0.01 to 6	CC1=NN(c2ccc(OC(C)(C)C)cc2)C(=O)C1C(=O)Nc1cccc(C(C)(F)F)c1 (centres unmarked) [compound 441]
0.01 to 6	CCCn1ccc2ccc(N3N=C(C)C(C(=O)Nc4cccc(C(F)(F)CC)c4)C3=O)cc21 (centres unmarked) [compound 359]

IC50 [nM]	SMILES
1000 to 100000	CC1=NN(c2ccccc2)C(=O)C1C(=O)N[C@@H](C)C(=O)O (stereo partly drawn) [compound 218, (2S)-2-(3-methyl-5-oxo-1-phenyl-4,5-dihydro-1H-pyrazole-4-carboxamido)propanoic acid]
0.01 to 6	CC1=NN(c2ccc(OC(F)F)c(-c3ncc(C)o3)c2)C(=O)C1C(=O)Nc1cccc(C(C)(F)F)c1 (centres unmarked) [compound 415]
0.01 to 6	COc1ccc(N2N=C(C)C(C(=O)Nc3cccc(C(C)(F)F)c3)C2=O)cc1O (centres unmarked) [compound 281]
6 to 100	CCCc1cc(-c2ccccc2)cc(N2N=C(C)C(C(=O)Nc3cccc(C(C)(F)F)c3)C2=O)c1 (centres unmarked) [compound 400]
> 100000	CC1=NN(c2ccccc2)C(=O)C1C(=O)N(C)c1ccccc1 (centres unmarked) [compound 204, N,3-dimethyl-5-oxo-N,1-diphenyl-4,5-dihydro-1H-pyrazole-4-carboxamide]
0.01 to 6	CC1=NN(c2cc(C)cc(-c3ncco3)c2)C(=O)C1C(=O)Nc1cccc(C(C)(F)F)c1 (centres unmarked) [compound 420]
6 to 100	CC1=NN(c2ccc(OC(F)F)cc2)C(=O)C1C(=O)Nc1cccc(C(C)(O)c2ccccc2)c1 (centres unmarked) [compound 337]
0.01 to 6	CCC(C)Oc1ccc(N2N=C(C)C(C(=O)Nc3cccc(C(C)(F)F)c3)C2=O)cc1 (centres unmarked) [compound 444]
0.01 to 6	CC1=NN(c2ccc(OC(F)F)cc2)C(=O)C1C(=O)Nc1cc(C(C)(F)F)ccc1CO (centres unmarked) [compound 459]
100 to 1000	CC1=NN(c2cc(Cc3ccc(OCc4ccccc4)cc3)cc(-c3cccnc3)c2)C(=O)C1C(=O)Nc1cccc(C(C)(F)F)c1 (centres unmarked) [compound 373]
6 to 100	CC1=NN(c2cc(Cc3ccc(Cl)cc3)cc(-c3ccccc3)c2)C(=O)C1C(=O)Nc1cccc(C(C)(F)F)c1 (centres unmarked) [compound 376]
0.01 to 6	CC1=NN(c2ccc3cc[nH]c3c2)C(=O)C1C(=O)Nc1cccc(C(C)(F)F)c1 (centres unmarked) [compound 410]
0.01 to 6	CC1=NN(c2ccc(OC3CCC3)cc2)C(=O)C1C(=O)Nc1cccc(C(C)(F)F)c1 (centres unmarked) [compound 440]
6 to 100	CC1=NN(c2ccc(OC(F)F)cc2)C(=O)C1C(=O)Nc1cccc(C(F)(F)C(C)C)c1 (centres unmarked) [compound 362]
0.01 to 6	CCCn1ccc2ccc(N3N=C(C)C(C(=O)Nc4cccc(C(C)(F)F)c4)C3=O)cc21 (centres unmarked) [compound 363]
0.01 to 6	CC1=NN(c2ccc(OC(C)C)cc2)C(=O)C1C(=O)Nc1cccc(C(C)(F)F)c1 (centres unmarked) [compound 447]
1000 to 100000	CC1=NN(c2ccccc2)C(=O)C1C(=O)NC(=O)c1ccccc1 (centres unmarked) [compound 207, N-benzoyl-3-methyl-5-oxo-1-phenyl-4,5-dihydro-1H-pyrazole-4-carboxamide]
6 to 100	CC1=NN(c2ccncc2)C(=O)C1C(=O)Nc1cccc(-c2ccco2)c1 (centres unmarked) [compound 240]
> 100000	CC1=NN(C2CCS(=O)(=O)C2)C(=O)C1C(=O)Nc1ccccc1 (centres unmarked) [compound 202, 1-(1,1-dioxidotetrahydrothiophen-3-yl)-3-methyl-5-oxo-N-phenyl-4,5-dihydro-1H-pyrazole-4-carboxamide]
